Test results as given in EP0307172A2, “Improvements in or relating to specific 5-HT3 antagonists” (ELI LILLY AND COMPANY, priority 1987, dated 1989).

Tests used:
5-HT₃ receptor = molecular target: T1, 5-HT₃ receptor (Rattus norvegicus, UniProt P35563); assay: Inhibition of serotonin-induced Von Bezold-Jarisch reflex in rats; format: in vivo; details: 15 minutes prior to 5-HT; for inhibition at 0.001 mg/kg / inhibition at 0.003 mg/kg / inhibition at 0.01 mg/kg: rat, iv, read-out: Percent Inhibition of Reflex in Rats; for inhibition at 0.001 mg/kg: 0.001 mg/kg I.V.
T1 construct: from tissue
T1 sequence (P35563 24-483): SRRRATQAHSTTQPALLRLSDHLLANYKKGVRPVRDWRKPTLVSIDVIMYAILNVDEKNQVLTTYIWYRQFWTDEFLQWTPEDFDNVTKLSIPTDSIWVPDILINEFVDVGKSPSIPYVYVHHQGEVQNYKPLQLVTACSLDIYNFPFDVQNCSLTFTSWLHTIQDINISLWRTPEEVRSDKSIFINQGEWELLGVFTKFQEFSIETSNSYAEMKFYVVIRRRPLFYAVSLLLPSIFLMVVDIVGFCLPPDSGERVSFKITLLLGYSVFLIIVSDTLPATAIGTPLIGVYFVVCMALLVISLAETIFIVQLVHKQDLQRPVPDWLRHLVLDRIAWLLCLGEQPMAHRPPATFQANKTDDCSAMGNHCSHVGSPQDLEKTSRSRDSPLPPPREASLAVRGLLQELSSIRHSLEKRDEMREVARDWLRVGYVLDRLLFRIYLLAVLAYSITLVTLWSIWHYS
From the text: The compounds of Formula I of this invention are long-acting, orally effective specific 5-HT₃ receptor antagonists, rendering them useful for the treatment of migraine. Because of this mechanism, the compounds of this invention should also be useful for treating emesis, motion sickness, ischemic bowel disease, diabetic gastric paresis, relaxation of the gastro-intestinal tract for instrumentation, other gastro-intestinal pain following surgery, obstetrics or as in abdominal cramps, and for treating CNS disorders such as schizophrenia and anxiety. The ability of these compounds to antagonize the effects of 5-HT was assessed by their inhibition of the Von Bezold-Jarisch reflex induced by 5-HT injected intravenously into the rat (See Paintal, Physiol. Rev., 53, 159 (1973)). When administered by the intravenous route 15 minutes prior to the administration of 5-HT, the compounds of this invention were effective in inhibiting the serotonin-induced Bezold-Jarisch reflex as summarized in Table 1 below: Table 1

cisplatin-induced emesis = assay: Blockade of cisplatin-induced emesis in dogs; format: in vivo; details: Canis lupus familiaris, iv, read-out: ED₅₀
From the text: These compounds may also be used as antiemetic agents. […] Since 5HT₃ receptors are prevalent in the GI tract, other potential uses include other diseases of the gastro- intestinal tract, such as ischemic bowel, esophageal reflux, etc.

| inhibition at 0.001 mg/kg (5-HT₃ receptor) [%] | inhibition at 0.003 mg/kg (5-HT₃ receptor; 0.003 mg/kg I.V.) [%] | Percent Inhibition of Reflex in Rats (5-HT₃ receptor; 0.003 mg/kg I.V.) [%] | Percent Inhibition of Reflex in Rats (5-HT₃ receptor; 0.01 mg/kg I.V.) [%] | Compound | ED50 (cisplatin-induced emesis) [mg/kg] | inhibition at 0.01 mg/kg (5-HT₃ receptor; 0.01 mg/kg I.V.) [%] |
| --- | --- | --- | --- | --- | --- | --- |
| 66 | 90 | – | – | CN1[C@@H]2CC[C@H]1C[C@@H](NC(=O)c1cc(Cl)cc3c1OC(C)(C)C3)C2 [Example 19, Endo-5-chloro-2,3-dihydro-2,2-dimethyl-N-(8-methyl-8-azabicyclo[3.2.1.]oct-3-yl)-7-benzofurancarboxamide (Z)-2-butenedioate] | 0.0356 | – |
| – | – | 26 | 67 | CN1C2CCC1CC(NC(=O)c1cc(Cl)cc3c1OC(C)(C)C3)C2.O=C(O)/C=C\C(=O)O (stereo not drawn) [Example 30, Exo-2,2-dimethyl-5-chloro-2,3-dihydro-N-(8-methyl-8-azabicyclo[3.2.1]oct-3-yl)-7-benzofurancarboxamide (Z)-2-butenedioate] | – | – |
| – | – | – | – | CN1C2CCC1CC(NC(=O)c1cc(F)cc3c1OC(C)(C)C3)C2 (stereo not drawn) [Example 58, 5-Fluoro-2,3-dihydro-2,2-dimethyl-N-(8-methyl-8-azabicyclo[3.2.1]oct-3-yl)-7-benzofurancarboxamide (Z)-2-butenedioate] | – | 71 |
| 3 | 14 | – | – | Cc1cc2c(c(C(=O)O[C@H]3C[C@H]4CC[C@@H](C3)N4C)c1)OC(C)C2 (mixture of isomers) [Example 40, dl-endo-2,3-dihydro-2,5-dimethyl-7-benzofurancarboxylic acid, 8-methyl-8-azabicyclo[3.2.1]oct-3-yl ester (Z)-2-butenedioate] | – | 67 |
